In patent publication US9050266B2, “Phenol derivatives and pharmaceutical or cosmetic use thereof” (GALDERMA RESEARCH & DEVELOPMENT, priority 2009, dated 2015):

Key:
[1] = molecular target: T1, receptors of AR type (androgen receptor) (Homo sapiens, UniProt P10275); assay: AR transactivation test in the PALM (PC3 Androgen receptor Luciferse MMTV) cell line, cross curves against methyltrienolone; assay type: cell-based; conditions: cross curves vs reference agonist methyltrienolone, read-out: Kdapp (apparent dissociation constant)
T1 construct: expressed in transfected cells; host or cells: PALM cell line (PC3 stably transfected with PMMTV-neo-Luc and pSG5puro-AR)
T1 sequence (P10275 1-920): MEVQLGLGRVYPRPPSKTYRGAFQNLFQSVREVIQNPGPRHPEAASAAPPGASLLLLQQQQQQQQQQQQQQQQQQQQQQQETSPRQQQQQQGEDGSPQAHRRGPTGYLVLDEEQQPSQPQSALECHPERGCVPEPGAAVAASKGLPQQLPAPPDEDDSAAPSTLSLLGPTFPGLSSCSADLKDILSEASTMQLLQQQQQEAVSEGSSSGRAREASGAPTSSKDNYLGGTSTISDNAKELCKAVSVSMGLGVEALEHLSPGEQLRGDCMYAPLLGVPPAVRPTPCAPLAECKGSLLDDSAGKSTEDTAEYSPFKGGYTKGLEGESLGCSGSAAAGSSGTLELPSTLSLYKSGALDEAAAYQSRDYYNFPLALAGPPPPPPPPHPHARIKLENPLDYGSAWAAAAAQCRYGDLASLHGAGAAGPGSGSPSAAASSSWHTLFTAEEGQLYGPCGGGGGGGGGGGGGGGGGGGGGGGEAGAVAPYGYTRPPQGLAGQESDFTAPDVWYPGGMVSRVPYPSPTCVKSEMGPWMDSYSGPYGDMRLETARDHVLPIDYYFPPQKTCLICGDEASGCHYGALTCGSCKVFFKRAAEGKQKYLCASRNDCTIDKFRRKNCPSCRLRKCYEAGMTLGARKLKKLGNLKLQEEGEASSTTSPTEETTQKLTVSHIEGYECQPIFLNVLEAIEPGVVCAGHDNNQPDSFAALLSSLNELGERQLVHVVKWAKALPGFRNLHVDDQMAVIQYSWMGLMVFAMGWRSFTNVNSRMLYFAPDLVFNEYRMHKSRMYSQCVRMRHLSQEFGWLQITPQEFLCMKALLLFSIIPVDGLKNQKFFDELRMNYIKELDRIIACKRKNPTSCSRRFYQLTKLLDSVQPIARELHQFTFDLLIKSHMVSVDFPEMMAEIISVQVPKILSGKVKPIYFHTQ
Procedure: The compounds according to the invention show inhibitory properties on receptors of AR type. This AR receptor-inhibiting activity is measured in a transactivation test through the KdR (resting), KdA (active) and Kdapp (apparent) dissociation constants according to the method set out in J. Molecular Biology (1965), 12(1), 88-118, Monod J. et al.
The expression “AR-type receptor inhibitor” means, according to the invention, any compound which has a Kdapp dissociation constant of less than or equal to 1 μM, and a KdR/KdA ratio ≦10, in a transactivation test.
The transactivation test is carried out in the PALM (PC3 Androgen receptor Luciferse MMTV) cell line which is a stable transfectant containing the PMMTV-neo-Luc (reporter gene) and pSG5puro-AR plasmids.
In this study, the affinity of each product for the 2 receptor states (KdR and KdA) is determined, as is an apparent Kd (KdApp). This constant is a result of the 2 Kd, but also depends on the initial equilibrium of the receptor between the active state and the resting state (L0) and on its expression level. It is determined by means of the following formula: 1/KdApp=(L0/(1+L0))×(1/KdR)+(1/(1+L0))×(1/KdA)
To determine these constants, “cross curves” of the test product against a reference agonist, methyltrienolone, are produced in 96-well plates. The test product is used at 10 concentrations and the reference agonist at 7 concentrations.

| SMILES | Kd [1] | melting point |
| --- | --- | --- |
| COc1cccc(NCc2ccccc2O)n1 [Example 1, 2-[(6-Methoxypyridin-2-ylamino)methyl]phenol] | 40 nM | 103 °C |
| Oc1ccccc1CNc1cccc(Br)n1 [Example 2, 2-[(6-bromo-pyridin-2-ylamino)-methyl]-phenol] | 2 nM |  |
| N#Cc1cccc(NCc2ccccc2O)n1 [Example 4, 6-(2-hydroxy-benzyl-amino)-pyridine-2-carbonitrile] | 200 nM |  |
| Oc1ccccc1CNc1cncc(Br)n1 [Example 13, 2-[(6-Bromopyrazin-2-ylamino)methyl]phenol] |  | 168 °C |
| Cc1cc(Cl)nc(NCc2ccccc2O)c1 [Example 18, 2-[(6-chloro-4-methyl-pyridin-2-ylamino)-methyl]-phenol] | 1000 nM |  |
| COc1cncc(NCc2ccccc2O)n1 [Example 19, 2-[(6-Methoxypyrazin-2-ylamino)methyl]phenol] | 8 nM | 158 °C |
| COc1nccc(NCc2ccccc2O)n1 [Example 20, 2-[(2-Methoxypyrimidin-4-ylamino)methyl]phenol] |  | 161 °C |
| CSc1cccc(NCc2ccccc2O)n1 [Example 22, 2-[(6-Methylsulphanylpyridin-2-ylamino)methyl]phenol] |  | 61 °C |
| C[S+]([O-])c1cccc(NCc2ccccc2O)n1 (centres unmarked) [Example 23, 2-[(6-Methanesulphinylpyridin-2-ylamino)methyl]phenol] |  | 133 °C |
